The text below walks through data of PMC5460189, “Melon13-lipoxygenase CmLOX18 may be involved in C6 volatiles biosynthesis in fruit” (Scientific Reports, 2017).

The assay has as its system T1, CmLOX18.
T1 construct: ORF in pYES2.1 TOPO-TA, His-tagged (anti-His), expressed in Saccharomyces cerevisiae INVSc1, purified
Put plainly: increase in A234, Michaelis-Menten plot. The format is biochemical, Cucumis melo. The following applies: substrate 15-350 μM, pH and temperature of the kinetic runs not stated (optimum pH 4.5, 30 °C).

On to `CCCCC/C=C\C/C=C\CCCCCCCC(=O)O` [Linoleic acid], for which the Km came out at 127 ± 18.6 µM.

Turning to `CC/C=C\C/C=C\C/C=C\CCCCCCCC(=O)O` [Linolenic acid], the Km (linolenic acid isomer not given, alpha assumed) was found to be 40.7 ± 2.65 µM.
